We go through 28 compounds from US10450306B2, “Isoxazole analogs as FXR agonists and methods of use thereof” (Enanta Pharmaceuticals, Inc., priority 2016, dated 2019).

The test deals with T1, human FXR (NR1H4) (Homo sapiens, UniProt Q96RI1).
T1 construct: host or cells: CHO (Chinese hamster ovary) reporter cells
T1 sequence (Q96RI1 1-486): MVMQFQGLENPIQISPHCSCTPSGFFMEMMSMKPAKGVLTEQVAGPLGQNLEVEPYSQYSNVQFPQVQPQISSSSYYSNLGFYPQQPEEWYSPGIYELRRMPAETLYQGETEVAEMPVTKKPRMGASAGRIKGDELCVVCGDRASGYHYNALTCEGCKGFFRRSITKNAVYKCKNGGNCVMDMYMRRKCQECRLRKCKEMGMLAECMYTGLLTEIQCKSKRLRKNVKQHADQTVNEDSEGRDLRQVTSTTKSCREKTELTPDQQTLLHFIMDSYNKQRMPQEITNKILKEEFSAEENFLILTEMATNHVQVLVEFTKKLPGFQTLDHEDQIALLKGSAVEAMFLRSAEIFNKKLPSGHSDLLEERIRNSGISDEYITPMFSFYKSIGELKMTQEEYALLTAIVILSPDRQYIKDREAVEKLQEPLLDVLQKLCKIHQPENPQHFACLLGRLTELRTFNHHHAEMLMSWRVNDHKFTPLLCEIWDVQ
The experiment in a line: Human FXR (NR1H4) Assay: Gal4 promoter driven luciferase reporter transactivation in CHO cells (Indigo Bioscience kit IB00601). As to Efficacy (%): efficacy normalized to CDCA set as 100%. The test is classed as cell-based. The note with it: for Emax: CHO, read-out: Efficacy (%); for EC50: Human FXR (NR1H4) reporter assay, potency ranges. The text has this: Human FXR (NR1H4) Assay Determination of a ligand mediated Gal4 promoter driven transactivation to quantify ligand binding mediated activation of FXR. FXR Reporter Assay kit purchased from Indigo Bioscience (Catalogue number: IB00601) to determine the potency and efficacy of compound developed by Enanta that can induce FXR activation. The principle application of this reporter assay system is to quantify functional activity of human FXR. The assay utilizes non-human mammalian cells, CHO (Chinese hamster ovary) cells engineered to express human NR1H4 protein (referred to as FXR). Reporter cells also incorporate the cDNA encoding beetle luciferase which catalyzes the substrates and yields photon emission. Luminescence intensity of the reaction is quantified using a plate-reading luminometer, Envision. Reporter Cells include the luciferase reporter gene functionally linked to an FXR responsive promoter. Thus, quantifying changes in luciferase expression in the treated reporter cells provides a sensitive surrogate measure of the changes in FXR activity. […] The assay is according to the manufacturer's instructions. In brief, the assay was performed in white, 96 well plates using final volume of 100 ul containing cells with different doses of compounds. Retrieve Reporter Cells from −80° C. storage. Perform a rapid thaw of the frozen cells by transferring a 10 ml volume of 37° C. cell recovery medium into the tube of frozen cells. Recap the tube of Reporter Cells and immediately place it in a 37° C. water bath for 5-10 minutes. Retrieve the tube of Reporter Cell Suspension from the water bath. Sanitize the outside surface of the tube with a 70% alcohol swab, and then transfer it into the cell culture hood. Dispense 90 μl of cell suspension into each well of the 96-well Assay Plate. Transfer the plate into 37° C. incubator, allowing the cells adherent to the bottom of the well. Dilute compounds in Dilution Plate (DP), and administrate to cells at Assay Plate (AP). DMSO content of the samples was kept at 0.2%. Cells were incubated for additional 22 hours before luciferase activities were measured. Thirty minutes before intending to quantify FXR activity, remove Detection Substrate and Detection Buffer from the refrigerator and place them in a low-light area so that they may equilibrate to room temperature. Remove the plate's lid and discard all media contents by ejecting it into an appropriate waste container. Gently tap the inverted plate onto a clean absorbent paper towel to remove residual droplets. Cells will remain tightly adhered to well bottoms. Add 100 ul of luciferase detection reagent to each well of the assay plate. Allow the assay plate to rest at room temperature for at least 5 minutes following the addition of LDR. Set the instrument (Envision) to perform a single 5 second “plate shake” prior to reading the first assay well. Read time may be 0.5 second (500 mSec) per well.

`CN(C)S(=O)(=O)NC(=O)c1ccc2nc(N3C4CCC3CC(NCc3c(-c5c(Cl)cccc5Cl)noc3C3CC3)C4)sc2c1` (single isomer, unassigned) [Example 225]: the Emax is 126% and the EC50 – broadly, the midpoint of the concentration-response curve – was less than 1 nM.
The matching figures for `CC(C)(C)c1ccc(S(=O)(=O)NC(=O)c2ccc3nc(N4C5CCC4CC(NCc4c(-c6c(Cl)cccc6Cl)noc4C4CC4)C5)sc3c2)cc1` (single isomer, unassigned) [Example 262]: 289% and less than 1 nM.
The corresponding values for `CCOC(=O)c1ccc2nc(N3[C@@H]4CC[C@H]3C[C@@H](NCc3c(-c5c(Cl)cccc5Cl)noc3C3CC3)C4)sc2c1` [Example 1, ethyl 2-((1R,3R,5S)-3-(((5-cyclopropyl-3-(2,6-dichlorophenyl)isoxazol-4-yl)methyl)amino)-8-azabicyclo[3.2.1]octan-8-yl)benzo[d]thiazole-6-carboxylate] are 74% and greater than 1000 nM.
Turning to `O=C(O)c1ccc2nc(N3[C@@H]4CC[C@H]3C[C@@H](NCc3c(-c5c(Cl)cccc5Cl)noc3C3CC3)C4)sc2c1` [Example 2, 2-((1R,3R,5S)-3-(((5-cyclopropyl-3-(2,6-dichlorophenyl)isoxazol-4-yl)methyl)amino)-8-azabicyclo[3.2.1]octan-8-yl)benzo[d]thiazole-6-carboxylic acid], the Emax stood at 244% and the EC50 was in the range of 1 to 100 nM.
The corresponding values for `COC(=O)c1cc(F)c2nc(N3C4CCC3CC(NCc3c(-c5c(Cl)cccc5Cl)noc3C3CC3)C4)sc2c1` (centres unmarked) [Example 3] are 137% and 1 to 100 nM.
The matching figures for `O=C(O)c1cc(F)c2nc(N3[C@@H]4CC[C@H]3C[C@@H](NCc3c(-c5c(Cl)cccc5Cl)noc3C3CC3)C4)sc2c1` [Example 4, 2-((1R,3R,5S)-3-(((5-cyclopropyl-3-(2,6-dichlorophenyl)isoxazol-4-yl)methyl)amino)-8-azabicyclo[3.2.1]octan-8-yl)-4-fluorobenzo[d]thiazole-6-carboxylic acid]: 169% and less than 1 nM.
For the compound `COC(=O)c1cc(OC)c2nc(N3C4CCC3CC(NCc3c(-c5c(Cl)cccc5Cl)noc3C3CC3)C4)sc2c1` (centres unmarked) [Example 5], the Emax was found to be 145% and the EC50 is 1 to 100 nM.
The corresponding values for `COc1cc(C(=O)O)cc2sc(N3C4CCC3CC(NCc3c(-c5c(Cl)cccc5Cl)noc3C3CC3)C4)nc12` (centres unmarked) [Example 6] are 153% and less than 1 nM.
The matching figures for `COC(=O)c1cc(C)c2nc(N3C4CCC3CC(NCc3c(-c5c(Cl)cccc5Cl)noc3C3CC3)C4)sc2c1` (centres unmarked) [Example 7]: 37% and 1 to 100 nM.
The corresponding values for `Cc1cc(C(=O)O)cc2sc(N3C4CCC3CC(NCc3c(-c5c(Cl)cccc5Cl)noc3C3CC3)C4)nc12` (centres unmarked) [Example 8] are 109% and less than 1 nM.
In the case of `COC(=O)c1ccc2nc(N3C4CCC3CC(NCc3c(-c5c(Cl)cccc5Cl)noc3C3CC3)C4)oc2c1` (centres unmarked) [Example 19], the Emax worked out at 78% and the EC50 was 100 to 1000 nM.
Turning to `O=C(O)c1ccc2nc(N3C4CCC3CC(NCc3c(-c5c(Cl)cccc5Cl)noc3C3CC3)C4)oc2c1` (centres unmarked) [Example 20], the Emax is 56% and the half-maximal effective concentration (EC50) was in the range of 1 to 100 nM.
As for `COC(=O)c1ccc2cc(N3[C@@H]4CC[C@H]3C[C@@H](NCc3c(-c5c(Cl)cccc5Cl)noc3C3CC3)C4)ccc2c1` [Example 49, methyl 6-((1R,3R,5S)-3-(((5-cyclopropyl-3-(2,6-dichlorophenyl)isoxazol-4-yl)methyl)amino)-8-azabicyclo[3.2.1]octan-8-yl)-2-naphthoate], the Emax is 135% and the EC50 fell in the range of 1 to 100 nM.
For the compound `O=C(O)c1ccc2cc(N3C4CCC3CC(NCc3c(-c5c(Cl)cccc5Cl)noc3C3CC3)C4)ccc2c1` (centres unmarked) [Example 50], the Emax turned out to be 186% and the EC50 is less than 1 nM.
In the case of `COC(=O)c1ccc2nc(N3C4CCC3CC(NCc3c(-c5c(Cl)cccc5Cl)noc3C3CC3)C4)cnc2c1` (centres unmarked) [Example 64], the Emax was determined as 40% and the EC50 was in the range of 1 to 100 nM.
The matching figures for `CC(C)(C)OC(=O)CNC(=O)c1cc(F)c2nc(N3C4CCC3CC(NCc3c(-c5c(Cl)cccc5Cl)noc3C3CC3)C4)sc2c1` [Example 95, tert-butyl (2-((1R,3r,5S)-3-(((5-cyclopropyl-3-(2,6-dichlorophenyl)isoxazol-4-yl)methyl)amino)-8-azabicyclo[3.2.1]octan-8-yl)-4-fluorobenzo[d]thiazole-6-carbonyl)glycinate]: 128% and 1 to 100 nM.
As for `O=C(O)CNC(=O)c1cc(F)c2nc(N3C4CCC3CC(NCc3c(-c5c(Cl)cccc5Cl)noc3C3CC3)C4)sc2c1` (centres unmarked) [Example 96], the Emax came out at 136% and the EC50 was in the range of 1 to 100 nM.
As for `O=C(O)c1ccc(N2C3CCC2CC(NCc2c(-c4c(Cl)cccc4Cl)noc2C2CC2)C3)c(F)c1` [Example 122, 4-((1R,3r,5S)-3-(((5-cyclopropyl-3-(2,6-dichlorophenyl)isoxazol-4-yl)methyl)amino)-8-azabicyclo[3.2.1]octan-8-yl)-3-fluorobenzoic acid], the Emax worked out at 90% and the EC50 was in the range of 1 to 100 nM.
The corresponding values for `O=C(O)c1ccc(N2C3CCC2CC(NCc2c(-c4c(Cl)cccc4Cl)noc2C2CC2)C3)nc1` (centres unmarked) [Example 125] are 86.5% and 1 to 100 nM.
Take `Fc1cc(-c2nn[nH]n2)ccc1N1C2CCC1CC(NCc1c(-c3c(Cl)cccc3Cl)noc1C1CC1)C2` (centres unmarked) [Example 138]: the Emax is 155% and the EC50 is less than 1 nM.
The corresponding values for `CC(C)(C)Oc1ccc(S(=O)(=O)NC(=O)OCc2ccc3nc(N4C5CCC4CC(NCc4c(-c6c(Cl)cccc6Cl)noc4C4CC4)C5)sc3c2)cc1` (centres unmarked) [Example 153] are 113% and 1 to 100 nM.
The corresponding values for `CCOC(=O)c1ccc2nc(N3[C@@H]4CC[C@H]3C[C@@H](N(C)Cc3c(-c5c(Cl)cccc5Cl)noc3C3CC3)C4)sc2c1` [Example 165, ethyl 2-((1R,3R,5S)-3-(((5-cyclopropyl-3-(2,6-dichlorophenyl)isoxazol-4-yl)methyl)(methyl)amino)-8-azabicyclo[3.2.1]octan-8-yl)benzo[d]thiazole-6-carboxylate] are 236% and 1 to 100 nM.
The matching figures for `CCOC(=O)c1ccc2nc(N(C)C3CCC(OCc4c(-c5c(Cl)cccc5Cl)noc4C4CC4)CC3)sc2c1` (centres unmarked) [Example 169]: 38% and greater than 1000 nM.
Consider `CN(c1nc2ccc(C(=O)O)cc2s1)C1CCC(OCc2c(-c3c(Cl)cccc3Cl)noc2C2CC2)CC1` (centres unmarked) [Example 170], for which the Emax came to 105% and the EC50 fell in the range of 100 to 1000 nM.
With `O=C(O)c1ccc2nc(N3CCN(Cc4c(-c5c(Cl)cccc5Cl)noc4C4CC4)CC3)sc2c1` [Example 172], the Emax was 257% and the half-maximal effective concentration (EC50) was 100 to 1000 nM.
The corresponding values for `CCOC(=O)c1ccc2nc(N3CCC(NCc4c(-c5c(Cl)cccc5Cl)noc4C4CC4)CC3)sc2c1` [Example 173] are 116% and greater than 1000 nM.
For `O=C(O)c1ccc2nc(N3CCC(NCc4c(-c5c(Cl)cccc5Cl)noc4C4CC4)CC3)sc2c1` [Example 174], the Emax was 132% and the half-maximal effective concentration (EC50) was 1 to 100 nM.
The matching figures for `O=C(O)c1ccc2nc(N3C4CCC3CN(Cc3c(-c5c(Cl)cccc5Cl)noc3C3CC3)C4)sc2c1` [Example 176]: 228% and 100 to 1000 nM.
